From patent US8263596B2, “Kinase inhibitors and method of treating cancer” (University Health Network, priority 2010, dated 2012)
Like-named read-outs stand apart in the source and are kept apart here. Each block holds one molecule with its values, some of them ahead of it.

Tests used:
HUV-EC-C cells = assay: In vitro angiogenesis assay (tube formation); assay type: cell-based; conditions: 4 hr
Procedure: Activity against these RTKs can result in antiangiogenic activity which is associated with slowed tumor growth and/or tumor regression. To measure the antiangiogenic effects of compounds of the invention, selected examples were tested in an angiogenesis assay as described below.
HUV-EC-C cells were obtained from the American Type Culture Collection (ATCC, CRL-1730), and were used at early passage for the assay. The in vitro Angiogenesis Assay Kit (Chemicon) was used according to the manufacturer's recommendation. An ice-cold mixture of ECMatrix was transferred into a precooled 96-well plate. After the matrix solution had solidified (>1 hr incubation at 37° C.), 8,000 cells were mixed with the appropriate inhibitor concentration (in 100 microlitres EGM-2) and plated into each well. The clinical antiangiogenic, Sutent was used as a positive control in comparison to a compound of the invention, A13. After incubation at 37° C. for 4 hr, tube formation was inspected. Two methods, pattern recognition and branch point counting, were used to quantify the progression of angiogenesis and expressed as a percentage of the control tube count (FIGS. 1 and 2).

Aurora A = target: T1, Aurora A (Homo sapiens, UniProt O14965); assay: Aurora A inhibition assay (Z-Lyte); assay type: biochemical
T1 sequence (O14965 1-403): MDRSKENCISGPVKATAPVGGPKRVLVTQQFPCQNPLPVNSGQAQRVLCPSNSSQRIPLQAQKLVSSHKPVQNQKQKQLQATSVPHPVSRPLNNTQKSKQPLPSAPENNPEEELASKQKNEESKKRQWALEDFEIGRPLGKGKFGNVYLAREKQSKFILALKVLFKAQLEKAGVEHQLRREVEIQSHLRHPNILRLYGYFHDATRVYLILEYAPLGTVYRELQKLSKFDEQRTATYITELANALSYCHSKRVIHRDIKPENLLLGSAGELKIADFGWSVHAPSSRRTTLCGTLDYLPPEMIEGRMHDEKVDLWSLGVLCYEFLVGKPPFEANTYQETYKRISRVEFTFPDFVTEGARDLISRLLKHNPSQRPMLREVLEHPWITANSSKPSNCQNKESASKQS

Aurora B = Aurora B (Homo sapiens, UniProt Q96GD4); assay: Aurora B inhibition assay (Z-Lyte); assay type: biochemical; conditions: read-out: IC50 Ranges Aurora B
Sequence of Aurora B (Q96GD4 whole entry): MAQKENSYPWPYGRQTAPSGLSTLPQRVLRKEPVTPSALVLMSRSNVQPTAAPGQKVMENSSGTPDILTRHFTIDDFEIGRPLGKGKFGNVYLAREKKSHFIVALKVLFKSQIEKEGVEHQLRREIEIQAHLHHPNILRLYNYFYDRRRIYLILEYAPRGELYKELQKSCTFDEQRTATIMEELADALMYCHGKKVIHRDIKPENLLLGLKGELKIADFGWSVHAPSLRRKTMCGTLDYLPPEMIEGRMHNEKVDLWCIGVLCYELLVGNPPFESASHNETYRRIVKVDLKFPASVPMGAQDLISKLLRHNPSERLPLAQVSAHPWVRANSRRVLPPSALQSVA

human PLK4 = target: T2, human PLK4 (Homo sapiens, UniProt O00444); assay: PLK4 inhibition assay (indirect ELISA); assay type: biochemical
T2 construct: amino terminal GST fusion of residues 1-391 of human PLK4; made in house; host or cells: E. coli
T2 sequence (O00444 1-391): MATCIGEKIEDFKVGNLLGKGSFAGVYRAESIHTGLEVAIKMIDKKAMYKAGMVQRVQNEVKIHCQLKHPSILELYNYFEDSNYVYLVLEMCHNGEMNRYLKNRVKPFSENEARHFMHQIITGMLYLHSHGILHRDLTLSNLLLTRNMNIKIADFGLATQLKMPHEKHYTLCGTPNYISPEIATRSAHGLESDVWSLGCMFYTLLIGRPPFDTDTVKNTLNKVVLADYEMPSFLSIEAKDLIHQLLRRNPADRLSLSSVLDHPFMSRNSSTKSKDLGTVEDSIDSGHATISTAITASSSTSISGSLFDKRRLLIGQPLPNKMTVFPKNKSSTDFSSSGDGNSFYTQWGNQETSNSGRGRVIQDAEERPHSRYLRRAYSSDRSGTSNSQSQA

FLT3 = target: T3, FLT3 (Homo sapiens, UniProt P36888); assay: FLT3 inhibition assay (Z-Lyte); assay type: biochemical; conditions: read-out: IC50 Ranges Flt3
T3 construct: purchased Invitrogen PV3182
T3 sequence (P36888 27-993): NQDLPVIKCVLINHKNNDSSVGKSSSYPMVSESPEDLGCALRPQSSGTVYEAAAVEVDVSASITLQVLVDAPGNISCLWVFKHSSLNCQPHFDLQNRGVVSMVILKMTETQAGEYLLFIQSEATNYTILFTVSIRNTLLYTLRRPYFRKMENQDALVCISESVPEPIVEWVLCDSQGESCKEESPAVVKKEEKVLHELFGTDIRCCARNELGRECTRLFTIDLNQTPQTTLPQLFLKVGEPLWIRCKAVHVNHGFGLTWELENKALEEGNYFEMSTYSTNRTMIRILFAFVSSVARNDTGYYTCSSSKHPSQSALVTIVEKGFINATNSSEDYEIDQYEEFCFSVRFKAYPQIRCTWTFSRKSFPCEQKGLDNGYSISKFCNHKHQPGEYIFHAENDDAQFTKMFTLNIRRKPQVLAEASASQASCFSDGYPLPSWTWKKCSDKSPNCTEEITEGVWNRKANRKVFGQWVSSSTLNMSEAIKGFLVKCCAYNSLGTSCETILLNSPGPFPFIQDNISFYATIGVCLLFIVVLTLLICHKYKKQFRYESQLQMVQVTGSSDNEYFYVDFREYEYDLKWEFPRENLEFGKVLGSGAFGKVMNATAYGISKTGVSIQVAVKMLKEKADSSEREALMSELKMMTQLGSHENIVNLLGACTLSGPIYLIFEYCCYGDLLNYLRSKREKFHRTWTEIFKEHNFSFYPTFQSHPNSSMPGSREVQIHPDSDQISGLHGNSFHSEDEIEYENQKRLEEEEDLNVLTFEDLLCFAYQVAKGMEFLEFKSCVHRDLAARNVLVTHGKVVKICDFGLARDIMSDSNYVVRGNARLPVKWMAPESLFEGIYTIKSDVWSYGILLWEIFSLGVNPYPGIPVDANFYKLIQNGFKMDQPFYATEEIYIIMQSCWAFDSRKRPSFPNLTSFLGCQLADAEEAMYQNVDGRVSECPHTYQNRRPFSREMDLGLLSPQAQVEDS

SMILES: O=C1Nc2ccccc2[C@]12C[C@H]2c1ccc2c(/C=C/c3ccncc3)n[nH]c2c1 (relative stereo) [Example A22, (1R*,2S*)-(E)-2-(3-(2-(pyridin-4-yl)vinyl)-1H-indazol-6-yl)spiro-[cyclo-propane-1,3′-indolin]-2′-one]
antiangiogenic effect (tube formation) (HUV-EC-C cells): anti-agiogenic effects at submicromolar concentrations

SMILES: CN1CCN(c2ccc(-c3n[nH]c4cc([C@@H]5C[C@@]56C(=O)Nc5ccccc56)ccc34)cn2)CC1 (racemic) [Example A18, (1R*,2S*)-2-(3-(6-(4-Methylpiperazin-1-yl)pyridin-3-yl)-1H-indazol-6-yl)spiro[cyclopropane-1,3′-indolin]-2′-one]
IC50 (Aurora A): 100 to 1000 nM
IC50 (Aurora B): < 100 nM
IC50 (human PLK4): < 100 nM

IC50 (Aurora B): < 100 nM
IC50 (human PLK4; read-out: IC50 Ranges PLK4): < 100 nM
IC50 (FLT3): > 1000 nM
SMILES: COc1ccc2c(c1)[C@]1(C[C@H]1c1ccc3c(-c4cccc(CN5CCOCC5)c4)n[nH]c3c1)C(=O)N2 (relative stereo) [Example A136, (1R*,2S*)-5′-methoxy-2-(3-(3-(morpholinomethyl)phenyl)-1H-indazol-6-yl)spiro[cyclopropane-1,3′-indolin]-2′-one 2,2,2-trifluoroacetate]

SMILES: COc1ccc2c(c1)[C@]1(C[C@H]1c1ccc3c(/C=C/c4ccc(C(=O)N5CCN(C)CC5)cc4)n[nH]c3c1)C(=O)N2 (relative stereo) [Example A179, (1R*,2S*)-(E)-5′-methoxy-2-(3-(4-(4-methylpiperazine-1-carbonyl)styryl)-1H-indazol-6-yl)spiro[cyclopropane-1,3′-indolin]-2′-one 2,2,2-trifluoroacetate]
IC50 (Aurora A): < 100 nM
IC50 (Aurora B): < 100 nM
IC50 (human PLK4; read-out: IC50 Ranges PLK4): < 100 nM

SMILES: CN(C)Cc1ccc(/C=C/c2n[nH]c3cc([C@@H]4C[C@@]45C(=O)Nc4ccccc45)ccc23)cc1 (relative stereo) [Example A23, (1R*,2S*)-(E)-2-(3-(4-((dimethylamino)methyl)styryl)-1H-indazol-6-yl)spiro[cyclopropane-1,3′-indolin]-2′-one 2,2,2-trifluoroacetate]
antiangiogenic effect (tube formation) (HUV-EC-C cells): anti-agiogenic effects at submicromolar concentrations

SMILES: CCc1ccc2c(c1)[C@]1(C[C@H]1c1ccc3c(-c4ccc(N5CCN(C)CC5)cc4)n[nH]c3c1)C(=O)N2 (relative stereo) [Example A142, (1R*,2S*)-5′-ethyl-2-(3-(4-(4-methylpiperazin-1-yl)phenyl)-1H-indazol-6-yl)spiro[cyclopropane-1,3′-indolin]-2′-one 2,2,2-trifluoroacetate]
inhibition at 1 µM (Aurora A): < 50%

SMILES: COc1ccc2c(c1)[C@]1(C[C@H]1c1ccc3c(-c4ccc(N5CCN(C)CC5)nc4)n[nH]c3c1)C(=O)N2 (relative stereo) [Example A13, (1R*,2S*)-5′-Methoxy-2-(3-(6-(4-methylpiperazin-1-yl)pyridin-3-yl)-1H-indazol-6-yl)spiro[cyclopropane-1,3′-indolin]-2′-one]
antiangiogenic effect (tube formation) (HUV-EC-C cells): anti-agiogenic effects at submicromolar concentrations
